Assay results: patent US20260199350A1, “FLAVONES, QUINOLINONES, QUINAZOLINONES, AND AURONES, AND USES IN CK2-MEDIATED DISEASES” (Salk Institute for Biological Studies, priority 2022, published 2026)
pIC50: −log10 of the molar value. In brackets after ≈: the same amount, converted by molar mass. Like-named read-outs stand apart in the source and are kept apart here.

Assays:
CK2A1 = target: T1, CK2A1 (Homo sapiens, UniProt P68400); experiment: Radiometric kinase assay (Eurofins), CK2A1; type: biochemical; conditions: read-out: CK2A1 RAD IC50
T1 construct: purchased Eurofins
Text: FIGS. 4A-4F characterize flavones for in vitro and in-cell CK2 inhibition. […] Representative of two independent experiments. […] Nonlinear fit was used to calculate IC50. […] Nonlinear fit was used to calculate IC50. […] Nonlinear fit was used to calculate IC50. […] Normalized to DMSO, data are representative of three independent experiments.
(§1) • ^1Radiometric kinase assay from Eurofins. Performed in astrocytes with a Promega Lumit IL-6 kit.

CK2A2 = target: T2, CK2A2 (Homo sapiens, UniProt P19784); experiment: Radiometric kinase assay (Eurofins), CK2A2; type: biochemical; conditions: read-out: CK2A2 RAD IC50
T2 construct: purchased Eurofins
Text: as §1

IL-6 secretion = IL-6 secretion assay in astrocytes (Promega Lumit IL-6 kit); type: cell-based, human; conditions: Homo sapiens, Astrocyte, read-out: IL6-Inhib.
Procedure: IL-6 secretion assay. HCAs were plated at 20,000 cells per well in white clear bottom 96-well plates. Two to three days later, media was removed and replaced with media containing 10 ng/mL IL1B and compound dilution series. Five hours later, plates were processed using the Lumit IL-6 Assay Kit (Promega W6030) according to the manufacturer's instructions.
• ^1Radiometric kinase assay from Eurofins. Performed in astrocytes with a Promega Lumit IL-6 kit. A series of halogenated flavones was generated and assayed (Table 3).

Aqueous solubility = type: physicochemical; conditions: read-out: Aqueous Solubility
NF-κB = experiment: NF-κB-Luciferase reporter assay in THP-1 NF-κB-Lucia cells; type: cell-based, human; conditions: FIG. 4D
Procedure: NF-κB-Luciferase reporter assay. THP-1 NF-κB-Lucia cells were plated at 10,000 cells per well with 10 ng/mL PMA. Three days later, media was removed and replaced with media containing LPS (1 μg/mL) and dilution series of compounds in flat bottom clear 96-well plates for 24 hours. A day later, 20 μL of media was transferred to a 96-well white plate and 50 μL of QuantiLuc Gold reagent (InvivoGen rep-qlcg5) was added per well; plate was mixed in the plate reader and luminescence was read using a Promega GloMax Reader.

[1] = aqueous medium (not further specified), Table 8
[2] = aqueous (not further specified), Table 3

T1 sequence (P68400 whole entry): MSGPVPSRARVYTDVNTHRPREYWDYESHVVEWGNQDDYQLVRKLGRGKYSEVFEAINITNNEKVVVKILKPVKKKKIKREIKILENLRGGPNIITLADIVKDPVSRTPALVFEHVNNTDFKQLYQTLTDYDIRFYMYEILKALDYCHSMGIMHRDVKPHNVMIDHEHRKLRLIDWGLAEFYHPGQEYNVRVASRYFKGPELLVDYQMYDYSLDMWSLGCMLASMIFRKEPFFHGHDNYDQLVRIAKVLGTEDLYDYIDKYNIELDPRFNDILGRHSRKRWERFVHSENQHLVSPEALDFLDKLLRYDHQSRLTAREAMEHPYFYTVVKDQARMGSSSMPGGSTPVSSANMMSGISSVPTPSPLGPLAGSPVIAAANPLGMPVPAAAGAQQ
T2 sequence (P19784 whole entry): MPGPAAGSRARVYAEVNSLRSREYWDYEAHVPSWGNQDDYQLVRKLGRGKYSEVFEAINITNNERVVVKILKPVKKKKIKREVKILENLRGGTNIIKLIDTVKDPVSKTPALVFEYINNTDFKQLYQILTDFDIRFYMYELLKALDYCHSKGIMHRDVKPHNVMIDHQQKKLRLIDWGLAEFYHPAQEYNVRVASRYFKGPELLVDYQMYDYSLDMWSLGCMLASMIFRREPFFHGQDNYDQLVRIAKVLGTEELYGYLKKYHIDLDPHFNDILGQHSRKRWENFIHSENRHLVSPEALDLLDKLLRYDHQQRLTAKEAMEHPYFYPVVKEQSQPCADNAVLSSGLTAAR

| pIC50 (CK2A1; Table 8, quinazolinones) | pIC50 (CK2A2; Table 8, quinazolinones) | pIC50 (IL-6 secretion; Table 8) | solubility (Aqueous solubility; [1]) | pIC50 (CK2A1; Table 11, aurones) | pIC50 (CK2A2; Table 11, aurones) | pIC50 (IL-6 secretion; Table 11) | solubility (Aqueous solubility; Table 11) | SMILES | further results |
| --- | --- | --- | --- | --- | --- | --- | --- | --- | --- |
| 6.61 | 6.56 | < 5.00 | 24.1 µM (≈ 11.2 µg/mL) | – | – | – | – | O=c1[nH]c(-c2cc(Cl)c(O)c(Cl)c2)nc2c(Br)cc(Br)cc12 [JKT.773B] | – |
| 6.09 | 5.98 | < 5.00 | 152 µM (≈ 65.5 µg/mL) | – | – | – | – | O=c1[nH]c(-c2cc(F)c(O)c(F)c2)nc2c(Br)cc(Br)cc12 [JKT.774A] | – |
| 6.43 | 5.61 | < 5.00 | 17.9 µM (≈ 8.31 µg/mL) | – | – | – | – | O=c1[nH]c(-c2ccc(O)c(C(F)(F)F)c2)nc2c(Br)cc(Br)cc12 [JKT.775A] | – |
| – | – | – | – | – | – | – | – | O=c1cc(-c2ccc(O)c(Br)c2)oc2c(Cl)cccc12 [JKT.777A] | pIC50 (CK2A1; Table 3, halogenated flavones): 7.70; pIC50 (CK2A2; Table 3, halogenated flavones): 7.68; pIC50 (IL-6 secretion; Table 3): 4.99; solubility (Aqueous solubility; [2]): 14 µM (≈ 4.92 µg/mL) |
| – | – | – | – | – | – | – | – | O=c1cc(-c2ccc(O)c(Br)c2)oc2ccc(Cl)cc12 [JKT.778A] | pIC50 (CK2A1; Table 3, halogenated flavones): 6.94; pIC50 (CK2A2; Table 3, halogenated flavones): 7.11; pIC50 (IL-6 secretion; Table 3): 5.13; solubility (Aqueous solubility; [2]): 15.1 µM (≈ 5.31 µg/mL) |
| – | – | – | – | – | – | – | – | COc1ccc2c(=O)cc(-c3ccc(O)c(Br)c3)oc2c1Br [JKT.780A] | pIC50 (CK2A1; Table 3, halogenated flavones): 8.05; pIC50 (CK2A2; Table 3, halogenated flavones): 7.60; pIC50 (IL-6 secretion; Table 3): < 5.00; solubility (Aqueous solubility; [2]): < 0.01 µM |
| – | – | – | – | – | – | – | – | COc1ccc2c(=O)cc(-c3ccc(O)c(C(F)(F)F)c3)oc2c1Br [JKT.786A] | pIC50 (CK2A1; Table 3, halogenated flavones): 5.61; pIC50 (CK2A2; Table 3, halogenated flavones): 5.77; pIC50 (IL-6 secretion; Table 3): < 5.00; solubility (Aqueous solubility; [2]): < 0.01 µM |
| – | – | – | – | – | – | – | – | COc1ccc2c(=O)cc(-c3ccc(O)c(Cl)c3)oc2c1Br [JKT.787A] | pIC50 (CK2A1; Table 3, halogenated flavones): 7.62; pIC50 (CK2A2; Table 3, halogenated flavones): 7.80; pIC50 (IL-6 secretion; Table 3): 5.11; solubility (Aqueous solubility; [2]): < 0.01 µM |
| – | – | – | – | – | – | – | – | O=c1cc(-c2ccc(O)c(Cl)n2)oc2c(Br)cc(Br)cc12 [JKT.801A] | pIC50 (CK2A1; Table 4): 7.62; pIC50 (CK2A2; Table 4): 7.68; pIC50 (IL-6 secretion; Table 4): 5.36; solubility (Aqueous solubility; Table 4): 155 µM (≈ 66.8 µg/mL) |
| 5.54 | 5.55 | < 5.00 | 4.2 µM (≈ 1.62 µg/mL) | – | – | – | – | O=c1[nH]c(-c2ccc(O)c(Br)c2)nc2c(Cl)cc(Cl)cc12 [JKT.805A] | – |
| < 5.30 | < 5.30 | < 5.00 | 17 µM (≈ 5.81 µg/mL) | – | – | – | – | O=c1[nH]c(-c2ccc(O)c(Cl)c2)nc2c(Cl)cc(Cl)cc12 [JKT.806A] | – |
| 6.04 | < 5.30 | < 5.00 | 126 µM (≈ 47.3 µg/mL) | – | – | – | – | O=c1[nH]c(-c2cc(Cl)c(O)c(Cl)c2)nc2c(Cl)cc(Cl)cc12 [JKT.807A] | – |
| 5.53 | 5.79 | < 5.00 | 189 µM (≈ 64.7 µg/mL) | – | – | – | – | O=c1[nH]c(-c2cc(F)c(O)c(F)c2)nc2c(Cl)cc(Cl)cc12 [JKT.808A] | – |
| 7.09 | < 5.30 | < 5.00 | < 0.01 µM | – | – | – | – | O=c1[nH]c(-c2ccc(O)c(C(F)(F)F)c2)nc2c(Cl)cc(Cl)cc12 [JKT.809A] | – |
| < 5.30 | < 5.30 | < 5.00 | < 0.01 µM | – | – | – | – | COc1cc(-c2nc3c(Cl)cc(Cl)cc3c(=O)[nH]2)ccc1O [JKT.810A] | – |
| – | – | – | – | 6.87 | 6.71 | 5.96 | < 0.01 µM | COc1c(Br)cc2c(c1Br)O/C(=C\c1ccc(O)c(I)c1)C2=O [JKT.813A] | – |
| – | – | – | – | 6.88 | 6.91 | 5.37 | < 0.01 µM | COc1ccc2c(c1Br)O/C(=C\c1ccc(O)c(I)c1)C2=O [JKT.814A] | – |
| – | – | – | – | 7.33 | 7.59 | 5.34 | < 0.01 µM | COc1ccc2c(c1Br)O/C(=C\c1ccc(O)c(Br)c1)C2=O [JKT.815A] | – |

| pIC50 (CK2A1; Table 8, quinazolinones) | pIC50 (CK2A2; Table 8, quinazolinones) | pIC50 (IL-6 secretion; Table 8) | solubility (Aqueous solubility; [1]) | pIC50 (CK2A1; Table 11, aurones) | pIC50 (CK2A2; Table 11, aurones) | pIC50 (IL-6 secretion; Table 11) | solubility (Aqueous solubility; Table 11) | SMILES | further results |
| --- | --- | --- | --- | --- | --- | --- | --- | --- | --- |
| – | – | – | – | 6.92 | 5.82 | < 5.00 | < 0.01 µM | COc1ccc2c(c1Br)O/C(=C\c1ccc(O)cc1Br)C2=O [JKT.816A] | – |
| – | – | – | – | 7.23 | 7.28 | 5.19 | < 0.01 µM | COc1ccc2c(c1Br)O/C(=C\c1ccc(O)c(Cl)c1)C2=O [JKT.817A] | – |
| – | – | – | – | < 5.30 | < 5.30 | < 5.00 | < 0.01 µM | COc1ccc2c(c1Br)O/C(=C\c1ccc(O)cc1Cl)C2=O [JKT.818A] | – |
| – | – | – | – | 6.27 | 6.18 | 5.23 | 17 µM (≈ 7.06 µg/mL) | COc1ccc2c(c1Br)O/C(=C\c1ccc(O)c(C(F)(F)F)c1)C2=O [JKT.819A] | – |
| – | – | – | – | 8.15 | 8.22 | < 5.00 | < 0.01 µM | COc1cc(/C=C2\Oc3c(ccc(OC)c3Br)C2=O)ccc1O [JKT.820A] | – |
| – | – | – | – | 5.81 | 6.69 | < 5.00 | 196 µM (≈ 73.4 µg/mL) | COc1ccc2c(c1Br)O/C(=C\c1ccc(C(=O)O)cc1)C2=O [JKT.821A] | – |
| – | – | – | – | 5.70 | 6.09 | 5.70 | < 0.01 µM | O=C1/C(=C/c2cc(Cl)c(O)c(Cl)c2)Oc2c(Br)cc(Br)cc21 [JKT.822A] | – |
| – | – | – | – | < 5.30 | 5.91 | 5.26 | 167 µM (≈ 82.5 µg/mL) | COc1c(Br)cc2c(c1Br)O/C(=C\c1cc(Cl)c(O)c(Cl)c1)C2=O [JKT.823A] | – |
| – | – | – | – | 6.35 | 6.85 | 5.00 | > 200 µM | COc1ccc2c(c1Br)O/C(=C\c1cc(Cl)c(O)c(Cl)c1)C2=O [JKT.824A] | – |
| 6.55 | 6.07 | < 5.00 | 22.4 µM (≈ 8.87 µg/mL) | – | – | – | – | O=c1[nH]c(-c2ccc(O)c(Br)c2)nc2c(Br)cccc12 [JKT.827A] | – |
| 6.19 | 5.85 | < 5.00 | 58.9 µM (≈ 20.7 µg/mL) | – | – | – | – | O=c1[nH]c(-c2ccc(O)c(Cl)c2)nc2c(Br)cccc12 [JKT.828A] | – |
| 6.13 | 6.18 | < 5.00 | 193 µM (≈ 74.6 µg/mL) | – | – | – | – | O=c1[nH]c(-c2cc(Cl)c(O)c(Cl)c2)nc2c(Br)cccc12 [JKT.829A] | – |
| 6.06 | 5.92 | < 5.00 | 171 µM (≈ 60.4 µg/mL) | – | – | – | – | O=c1[nH]c(-c2cc(F)c(O)c(F)c2)nc2c(Br)cccc12 [JKT.830A] | – |
| < 5.30 | < 5.30 | < 5.00 | 139 µM (≈ 53.5 µg/mL) | – | – | – | – | O=c1[nH]c(-c2ccc(O)c(C(F)(F)F)c2)nc2c(Br)cccc12 [JKT.831A] | – |
| 5.40 | < 5.30 | 4.98 | 61 µM (≈ 21.2 µg/mL) | – | – | – | – | COc1cc(-c2nc3c(Br)cccc3c(=O)[nH]2)ccc1O [JKT.832A] | – |
| 6.00 | 5.95 | < 5.00 | < 0.01 µM | – | – | – | – | COc1nc(-c2ccc(O)c(Br)c2)nc2c(Br)cc(Br)cc12 [JKT.842A] | – |
| – | – | – | – | – | – | – | – | O=c1cc(-c2ccc(O)c(Br)n2)oc2c(Br)cc(Br)cc12 [JKT.844A] | pIC50 (CK2A1; Table 4): 6.58; pIC50 (CK2A2; Table 4): 6.70; pIC50 (IL-6 secretion; Table 4): 5.10; solubility (Aqueous solubility; Table 4): 148 µM (≈ 70.2 µg/mL) |
| – | – | – | – | – | – | – | – | O=c1cc(-c2ccccc2)oc2cc(O)cc(O)c12 [chrysin] | Activity in THP-1-NF-κB-Lucia monocytes (NF-κB): No activity |
